Experimental findings from US10822331B2, “Processes for preparing ATR inhibitors” (Vertex Pharmaceuticals Incorporated, priority 2011, dated 2020) are described below.

This assay concerns HCT116 colorectal cancer cells. Kind of assay: Cisplatin sensitization assay (96 h MTS cell viability). The assay is classed as cell-based. The following applies: concentration of compound required to reduce the IC50 of Cisplatin alone by at least 3-fold, HCT116, 96 h. The method, then: Compounds can be screened for their ability to sensitize HCT116 colorectal cancer cells to Cisplatin using a 96 h cell viability (MTS) assay. […] Compounds and Cisplatin are then both added simultaneously to the cell media in 2-fold serial dilutions from a top final concentration of […] as a full matrix of concentrations in a final cell volume of 200 μl, and the cells are then incubated at 37° C. in 5% CO2. After 96 h, 40 μl of MTS reagent (Promega G358a) is added to each well and the cells are incubated for 1 h at 37° C. in 5% CO2.
As to `[2H]C([2H])(NC)c1ccc(-c2cc(-c3nc(-c4ccc(S(=O)(=O)C(C)C)cc4)cnc3N)on2)cc1` [II-1, 3-[3-[4-[dideuterio(methylamino)methyl]phenyl]isoxazol-5-yl]-5-(4-isopropylsulfonylphenyl)pyrazin-2-amine], the Cisplatin sensitization is reported as 39 nM. Then `[2H]C([2H])([2H])NC([2H])([2H])c1ccc(-c2cc(-c3nc(-c4ccc(S(=O)(=O)C(C)C)cc4)cnc3N)on2)cc1` [II-2, 3-[3-[4-[dideuterio-(trideuteriomethylamino)methyl]phenyl]isoxazol-5-yl]-5-(4-isopropylsulfonylphenyl)pyrazin-2-amine], with 29 nM; and `[2H]C([2H])([2H])NCc1ccc(-c2cc(-c3nc(-c4ccc(S(=O)(=O)C(C)C)cc4)cnc3N)on2)cc1` [II-3, 5-(4-isopropylsulfonylphenyl)-3-[3-[4-[(trideuteriomethylamino)methyl]phenyl]isoxazol-5-yl]pyrazin-2-amine], with 39 nM.
